Test results reported in publication PMC6270160, “Bioactive Phenylpropanoid Glycosides from Tabebuia avellanedae” (Molecules, 2013).

Tests used:
[1] = target: T1, cytochrome CYP3A4 enzyme (Homo sapiens, UniProt P08684); test: Inhibitory activity on cytochrome CYP3A4 enzyme (Vivid substrate, P450 BACULOSOMES, fluorescence); format: in vitro ADME; conditions: 20 min pre-incubation, 30 min reaction, fluorescence at 460 nm; read-out: IC50 ± SD, inhibitory activity on CYP3A4 enzyme
T1 construct: purchased
T1 sequence (P08684 whole entry): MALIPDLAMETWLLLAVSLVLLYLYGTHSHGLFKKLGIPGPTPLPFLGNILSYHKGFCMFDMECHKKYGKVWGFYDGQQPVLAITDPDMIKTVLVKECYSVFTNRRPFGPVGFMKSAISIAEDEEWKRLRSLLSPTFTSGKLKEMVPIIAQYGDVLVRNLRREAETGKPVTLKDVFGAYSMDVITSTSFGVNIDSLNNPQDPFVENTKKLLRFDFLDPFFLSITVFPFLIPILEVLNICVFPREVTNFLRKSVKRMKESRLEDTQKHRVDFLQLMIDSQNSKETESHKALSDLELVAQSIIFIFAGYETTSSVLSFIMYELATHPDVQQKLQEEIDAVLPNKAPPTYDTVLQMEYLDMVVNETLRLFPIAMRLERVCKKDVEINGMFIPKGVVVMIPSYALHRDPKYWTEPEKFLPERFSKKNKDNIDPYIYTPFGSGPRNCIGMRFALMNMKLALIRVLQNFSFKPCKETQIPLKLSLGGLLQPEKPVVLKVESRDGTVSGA
Protocol: Measurement of inhibitory activity on cytochrome CYP3A4 enzyme vivid substrate and fluorescent standards were reconstituted and a standard curve was prepared. 40 µL of test samples at different concentrations diluted in 1% DMSO, positive inhibition control and solvent were added to each 96-well plate, then was added 50 µL of Master pre-mix consisting of P450 BACULOSOMES in vivid CYP 450, Reaction Buffer and Regeneration System (consisting of glucose-6-phosphate and glucose-6-phosphate dehydrogenase), and the plate was mixed and incubated for 20 min to allow samples to interact with the CYP3A4 enzyme. The reaction was started by addition of 10 µL reaction starting liquid including vivid substrate, NADP and Reaction Buffer mixture, and the fluorescence was recorded using a LAS-3000 luminescent image analyzer at a wavelength of 460 nm after 30 min duration of reaction. The inhibition rate was calculated using the equation: % inhibition = [1 − relative fluorescence units (rfu) in the presence of the test sample or positive inhibition control/rfu in the absence of the test compound or positive inhibition control] × 100.

[2] = DPPH free radical scavenging (antioxidant) assay; conditions: DPPH in MeOH, 30 min at room temperature in the dark, absorbance at 517 nm, triplicate; read-out: IC50 ± SD, scavenging activity on DPPH free radicals
Protocol: Test samples (100 µL) at different concentrations in MeOH and DPPH (200 µL, […]) in MeOH were added to 96-well microtiter plates. The plate was shaken for 1 min by a plate shaker, and incubated for 30 min at room temperature in the dark. After incubation, the absorbance was recorded at 517 nm. The tested samples at different concentrations without DPPH solution were used as blank control to eliminate the influence of the sample color. Ascorbic acid was used as positive control, and DPPH solution in MeOH served as a negative control. All tests were independently performed in triplicate. DPPH radical scavenging activity (%) = [1 − (AbsS − AbsB)/AbsC] × 100%.

| SMILES | IC50 [1] [µM] | IC50 [2] [µM] |
| --- | --- | --- |
| CC1OC(OC2C(O)C(COC(=O)C=Cc3ccc(O)c(O)c3)OC(OCCc3ccc(O)c(O)c3)C2O)C(O)C(O)C1O (stereo not shown) [Compound 4] | 91.7 ± 5.44 | 1.15 ± 0.04 |
| CC1OC(OC2C(O)C(OCCc3ccc(O)c(O)c3)OC(CO)C2OC(=O)C=Cc2ccc(O)c(O)c2)C(O)C(O)C1O (stereo not shown) [Compound 1] | 46.3 ± 1.53 | 2.33 ± 0.06 |
| C[C@@H]1O[C@@H](O[C@H]2[C@@H](O)[C@@H](CO)O[C@@H](OCCc3ccc(O)c(O)c3)[C@@H]2O)[C@H](O)[C@H](O)[C@H]1OC(=O)/C=C/c1ccc(O)c(O)c1 [Compound 5, 1'-O-β-(3,4-dihydroxyphenyl)-ethyl-[4′′-O-caffeoyl-(α-L-rhamnopyranosyl)]-(l-3′)-D-galactopyranoside] | 22.5 ± 1.65 | 0.12 ± 0.03 |
| CC1OC(OC2C(O)C(CO)OC(OCCc3ccc(O)c(O)c3)C2O)C(O)C(O)C1OC(=O)C=Cc1ccc(O)c(O)c1 [Compound 6, 1′-O-β-(3,4-dihydroxyphenyl)-ethyl-[4′′-O-caffeoyl-(α-L-fucopyranosyl)]-(l-3′)-D-galactopyranoside] | 15.1 ± 2.43 | 0.24 ± 0.01 |
| O=C1O[C@H]([C@@H](O)CO)C(O)=C1O [Ascorbic acid, reference compound] | – | 3.08 ± 0.06 |
| CC1OC(OC2C(O)C(OCCc3ccc(O)c(O)c3)OC(CO)C2OC(=O)C=Cc2ccc(O)c(O)c2)C(O)C(O)C1O [Compound 2, 1′-O-β-(3,4-dihydroxyphenyl)-ethyl-4′-O-caffeoyl-α-L-fucopyranosyl-(l-3′)-D-glucopyranoside] | 43.3 ± 1.79 | 1 ± 0.02 |
| CC1OC(OC2C(O)C(OCCc3ccc(O)c(O)c3)OC(CO)C2OC(=O)C=Cc2ccc(O)c(O)c2)C(O)C(O)C1O (stereo not shown) [Compound 3] | 37.7 ± 2.11 | 0.66 ± 0.04 |
